pKi: −log10 of the molar value.
The molecules below were run against T1, recombinant human 5-HT5A receptor (Homo sapiens, UniProt P47898) (assay: [3H]LSD radioligand binding assay, membranes of HEK-EBNA cells transiently expressing 5-HT5A receptors). Details: [3H]LSD approx. 1 nM, SPA beads, 120 min at room temperature; Ki from IC50 by Cheng-Prussoff equation.
T1 construct: expressed in transfected cells; host or cells: HEK-EBNA (Human Embryonic Kidney-EBNA) cells, transient cDNA expression, membranes
T1 sequence (P47898 whole entry): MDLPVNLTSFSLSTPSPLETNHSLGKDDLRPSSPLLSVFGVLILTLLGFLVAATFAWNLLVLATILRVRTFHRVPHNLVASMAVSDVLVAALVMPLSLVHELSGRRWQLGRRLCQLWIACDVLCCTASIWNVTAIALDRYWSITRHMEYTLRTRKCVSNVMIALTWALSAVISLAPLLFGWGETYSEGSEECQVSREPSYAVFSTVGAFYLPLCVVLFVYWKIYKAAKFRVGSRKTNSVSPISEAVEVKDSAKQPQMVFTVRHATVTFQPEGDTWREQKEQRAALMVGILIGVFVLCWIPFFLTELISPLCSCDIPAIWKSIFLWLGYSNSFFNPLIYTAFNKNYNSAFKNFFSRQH
Protocol: A [^3H]LSD radioligand binding assay was used to determine the affinity of the compounds for the recombinant human 5-HT5A receptor, in membranes from transiently (cDNA) expressed 5-HT5A receptors in Human Embryonic Kidney-EBNA (HEK-EBNA) cells. Assay buffer consisted of Tris (50 mM) buffer containing 1 mM EGTA, 10 mM MgCl2 (pH 7.4) and 10 μM pargyline. The binding assay was carried out in 96-well-plates in the presence of [^3H]LSD (approximately 1 nM), approximately 2 μg/well of membrane protein, and 0.5 mg of Ysi-poly-1-lysine SPA beads in a final volume of 200 μl of buffer. Non-specific binding was defined using methiothepin 2 μM. Compounds were tested at 10 concentrations. All assays were conducted in duplicate and repeated at least two times. Assay plates were incubated for 120 min at room temperature before centrifugation. Bound ligand was determined using a Packard Topcount scintillation counter. IC50 values were calculated using a non-linear curve fitting program and Ki values calculated using the Cheng-Prussoff equation.

Compound	pKi
Fc1cc(F)cc(CNc2cccc3nc(NC4COc5ccccc54)ccc23)c1 (racemic) [Example 17, rac-N5-(3,5-Difluoro-benzyl)-N2-(2,3-dihydro-benzofuran-3-yl)-quinoline-2,5-diamine]	8.03
c1cncc(CNc2cccc3nc(NC4COc5ccccc54)ccc23)c1 (racemic) [Example 18, rac-N2-(2,3-Dihydro-benzofuran-3-yl)-N5-pyridin-3-ylmethyl-quinoline-2,5-diamine]	7.66
COc1ccc2c(c1)C(Nc1ccc3c(NS(=O)(=O)c4ccc(F)cc4)cccc3n1)CC2 (racemic) [Example 21, rac-4-Fluoro-N-[2-(6-methoxy-indan-1-ylamino)-quinolin-5-yl]-benzenesulfonamide]	7.80
COc1ccc2c(c1)C(Nc1ccc3c(NCc4cccnc4)cccc3n1)CC2 (racemic) [Example 23, rac-N2-(6-Methoxy-indan-1-yl)-N5-pyridin-3-ylmethyl-quinoline-2,5-diamine]	7.63
COc1cccc2c1C(Nc1ccc3c(NS(=O)(=O)c4cc(F)cc(F)c4)cccc3n1)CCC2 (racemic) [Example 59, rac 3,5-Difluoro-N-[2-(8-methoxy-1,2,3,4-tetrahydro-naphthalen-1-ylamino)-quinolin-5-yl]-benzenesulfonamide]	7.87
O=S(=O)(Nc1cccc2nc(NC3CC4CCC3C4)ccc12)c1ccc(F)cc1 (racemic) [Example 60, rac-exo-N-[2-(Bicyclo[2.2.1]hept-2-ylamino)-quinolin-5-yl]-4-fluoro-benzenesulfonamide]	6.71
O=S(=O)(Nc1cccc2nc(NC3CCCc4ccccc43)ccc12)c1cc(F)cc(F)c1 (racemic) [Example 62, rac-3,5-Difluoro-N-[2-(1,2,3,4-tetrahydro-naphthalen-1-ylamino)-quinolin-5-yl]-benzenesulfonamide]	7.22
COc1cccc2c1C(Nc1ccc3c(NCc4c[nH]nn4)cccc3n1)CCC2 (racemic) [Example 68, Rac-N2-(8-Methoxy-1,2,3,4-tetrahydro-naphthalen-1-yl)-N5-(1H-[1,2,3]triazol-4-ylmethyl)-quinoline-2,5-diamine]	7.81
COc1cccc2c1C(Nc1ccc3c(NCc4cccc5[nH]ccc45)cccc3n1)CCC2 (racemic) [Example 70, Rac-N5-(1H-Indol-4-ylmethyl)-N2-(8-methoxy-1,2,3,4-tetrahydro-naphthalen-1-yl)-quinoline-2,5-diamine]	7.80
COc1ccc2c(c1)C(Nc1ccc3c(NS(=O)(=O)c4cc(F)c(F)c(F)c4)cccc3n1)CC2 (single isomer, unassigned; (+)) [Example 20, (+)-3,4,5-Trifluoro-N-[2-(6-methoxy-indan-1-ylamino)-quinolin-5-yl]-benzenesulfonamide]	7.74
c1cncc(CNc2cccc3nc(NC4COc5ccccc54)ccc23)c1 (single isomer, unassigned; (+)) [Example 27, (+)-N2-2,3-Dihydro-benzofuran-3-yl-N5-pyridin-3-ylmethyl-quinoline-2,5-diamine]	7.59
COc1ccc2c(c1)C(Nc1ccc3c(NCc4cccc(S(C)(=O)=O)c4)cccc3n1)CC2 (single isomer, unassigned; (+)) [Example 30, (+)-N5-(3-Methanesulfonyl-benzyl)-N2-(6-methoxy-indan-1-yl)-quinoline-2,5-diamine]	7.72
Fc1cc(F)cc(CNc2cccc3nc(NC4COc5ccccc54)ccc23)c1 (single isomer, unassigned; (+)) [Example 32, (+)-N5-(3,5-Difluoro-benzyl)-2,3-dihydro-benzofuran-3-yl-quinoline-2,5-diamine]	7.90
COc1ccc2c(c1)C(Nc1ccc3c(NCc4cccnc4)cccc3n1)CC2 (single isomer, unassigned; (+)) [Example 37, (+)-N2-(6-Methoxy-indan-1-yl)-N5-pyridin-3-ylmethyl-quinoline-2,5-diamine]	7.75
O=S(=O)(Nc1cccc2nc(NC3COc4ccccc43)ccc12)c1cc(F)cc(F)c1 (single isomer, unassigned; (+)) [Example 41, (+)-N-{2-[(2,3-Dihydro-benzofuran-3-yl)amino]-quinolin-5-yl}-3,5-difluoro-benzenesulfonamide]	7.64
c1cncc(COc2cccc3nc(N[C@@H]4CCc5ccccc54)ccc23)c1 [Example 4, (R)-Indan-1-yl-[5-(pyridin-3-ylmethoxy)-quinolin-2-yl]-amine]	7.43
CN(c1cccc2nc(N[C@@H]3CCc4ccccc43)ccc12)S(=O)(=O)c1ccc(F)cc1 [Example 8, 4-Fluoro-N-[2-((R)-indan-1-ylamino)-quinolin-5-yl]-N-methyl-benzenesulfonamide]	7.87
Fc1ccc(Oc2cccc3nc(N[C@@H]4CCc5ccccc54)ccc23)cc1 [Example 9, [5-(4-Fluoro-phenoxy)-quinolin-2-yl]-(R)-indan-1-yl-amine]	7.04
O=C(Nc1cccc2nc(N[C@@H]3CCc4ccccc43)ccc12)c1cc(F)cc(F)c1 [Example 45, 3,5-Difluoro-N-[2-((R)-indan-1-ylamino)-quinolin-5-yl]-benzamide]	7.01

Second part, the molecule after the results:

pKi	Compound
8.14	COc1cccc2c1C(Nc1ccc3c(NS(=O)(=O)c4cc(F)c(F)c(F)c4)cccc3n1)CC2 (racemic) [Example 19, rac-3,4,5-Trifluoro-N-[2-(7-methoxy-indan-1-ylamino)-quinolin-5-yl]-benzenesulfonamide]
8.37	COc1cccc2c1C(Nc1ccc3c(NS(=O)(=O)c4ccc(F)cc4)cccc3n1)CC2 (racemic) [Example 28, rac-4-Fluoro-N-[2-(7-methoxy-indan-1-ylamino)-quinolin-5-yl]-benzenesulfonamide]
8.01	COc1ccc2c(c1)C(Nc1ccc3c(NCc4cc(F)cc(F)c4)cccc3n1)CC2 (racemic) [Example 29, rac-N5-(3,5-Difluoro-benzyl)-N2-(6-methoxy-indan-1-yl)-quinoline-2,5-diamine]
8.43	COc1cccc2c1C(Nc1ccc3c(NCc4cccc5[nH]ccc45)cccc3n1)CC2 (racemic) [Example 57, rac-N5-(1H-Indol-4-ylmethyl)-N2-(7-methoxy-indan-1-yl)-quinoline-2,5-diamine]
8.33	COc1cccc2c1C(Nc1ccc3c(NS(=O)(=O)c4cccc5c4ccn5C)cccc3n1)CC2 (racemic) [Example 61, rac-1-Methyl-1H-indole-4-sulfonic acid [2-(7-methoxy-indan-1-ylamino)-quinolin-5-yl]-amide]
7.98	COc1cccc2c1C(Nc1ccc3c(NCc4cnc[nH]4)cccc3n1)CCC2 (racemic) [Example 67, Rac-N5-(3H-Imidazol-4-ylmethyl)-N2-(8-methoxy-1,2,3,4-tetrahydro-naphthalen-1-yl)-quinoline-2,5-diamine]
7.92	COc1ccc2c(c1)C(Nc1ccc3c(NS(=O)(=O)c4ccc(F)cc4)cccc3n1)CC2 (single isomer, unassigned; (+)) [Example 33, (+)-4-Fluoro-N-[2-(6-methoxy-indan-1-ylamino)-quinolin-5-yl]-benzenesulfonamide]
8.11	COc1ccc2c(c1)C(Nc1ccc3c(NCc4cc(F)cc(F)c4)cccc3n1)CC2 (single isomer, unassigned; (+)) [Example 35, (+)-N5-(3,5-Difluoro-benzyl)-N2-(6-methoxy-indan-1-yl)-quinoline-2,5-diamine]
8.42	O=S(=O)(Nc1cccc2nc(N[C@@H]3CCc4ccccc43)ccc12)c1ccc(F)cc1 [Example 1, 4-Fluoro-N-[2-((R)-indan-1-ylamino)-quinolin-5-yl]-benzenesulfonamide]
8.44	O=S(=O)(Nc1cccc2nc(N[C@@H]3CCc4ccccc43)ccc12)c1ccc(Cl)s1 [Example 5, 5-Chloro-thiophene-2-sulfonic acid [2-((R)-indan-1-ylamino)-quinolin-5-yl]-amide]
8.73	Fc1cc(F)cc(CNc2cccc3nc(N[C@@H]4CCc5ccccc54)ccc23)c1 [Example 6, N5-(3,5-Difluoro-benzyl)-N2-(R)-indan-1-yl-quinoline-2,5-diamine]
8.55	Clc1ccc(Nc2cccc3nc(N[C@@H]4CCc5ccccc54)ccc23)cc1 [Example 7, N5-(4-Chloro-phenyl)-N2-(R)-indan-1-yl-quinoline-2,5-diamine]
8.23	O=S(=O)(Nc1cccc2nc(N[C@@H]3CCc4ccccc43)ccc12)c1cc(F)cc(F)c1 [Example 11, 3,5-Difluoro-N-[2-((R)-indan-1-ylamino)-quinolin-5-yl]-benzenesulfonamide]
8.29	c1cncc(CNc2cccc3nc(N[C@@H]4CCc5ccccc54)ccc23)c1 [Example 12, N2-(R)-Indan-1-yl-N5-pyridin-3-ylmethyl-quinoline-2,5-diamine]
7.95	O=S(=O)(Nc1cccc2nc(N[C@@H]3CCc4ccccc43)ccc12)c1cc(F)c(F)c(F)c1 [Example 16, 3,4,5-Trifluoro-N-[2-((R)-indan-1-ylamino)-quinolin-5-yl]-benzenesulfonamide]
8.34	COc1cccc2c1C(Nc1ccc3c(NS(=O)(=O)c4cc(F)cc(F)c4)cccc3n1)CC2 (stereo not drawn) [Example 39, 3,5-Difluoro-N-[2-(7-methoxy-indan-1-ylamino)-quinolin-5-yl]-benzenesulfonamide]
8.19	c1ccc2c(c1)CC[C@H]2Nc1ccc2c(NCc3cnc[nH]3)cccc2n1 [Example 43, N5-(3H-Imidazol-4-ylmethyl)-N2-(R)-indan-1-yl-quinoline-2,5-diamine]

From patent US7923561B2 (Hoffmann-La Roche Inc., priority 2006, dated 2011)
